Molecular target: T1, recombinant human 11 β-HSD1 (Homo sapiens, UniProt P28845)
T1 construct: made in house; host or cells: E. coli
Assay: 11 β-HSD1 SPA Assay (Scintillation Proximity Assay)
Type: biochemical
Experimental: (§1) Inhibition of 11 βHSD1 by test compounds was assessed in vitro by a Scintillation Proximity Assay (SPA). The assay was carried out in a 384-well assay plate in a total well volume of 26 μl and contained a mixture of tritiated cortisone substrate (40 nM), NADPH cofactor (1 mM), inhibitor in serial dilutions ([…] to 10 μM), and purified E. coli-expressed recombinant human 11 βHSD1 (30-100 nM) in assay buffer (50 mM HEPES, 100 mM KCl, 5 mM NaCl, and 2 mM MgCl2, pH7.4). Following mixing, the plate was incubated for 2 hours at room temperature. Reactions were stopped by addition of 30 μl of protein A YSi SPA beads (10 mg/ml) that had been pre-incubated with glycyrrhetinic acid (1 mM) and a monoclonal cortisol antibody (3 μg/ml). The plate was then incubated overnight at room temperature prior to reading on a Microbeta counter. Percent inhibition of each compound was calculated based on the background and the maximal signals. Wells that contained substrate without compound or enzyme were used as the background signal, while the wells that contained substrate and enzyme without any compound were used as the maximal signal. The calculation of the IC50 values for the inhibitors was performed by Activity Base.
as §1, with “β-HSD1” for “βHSD1”

T1 sequence (P28845 whole entry): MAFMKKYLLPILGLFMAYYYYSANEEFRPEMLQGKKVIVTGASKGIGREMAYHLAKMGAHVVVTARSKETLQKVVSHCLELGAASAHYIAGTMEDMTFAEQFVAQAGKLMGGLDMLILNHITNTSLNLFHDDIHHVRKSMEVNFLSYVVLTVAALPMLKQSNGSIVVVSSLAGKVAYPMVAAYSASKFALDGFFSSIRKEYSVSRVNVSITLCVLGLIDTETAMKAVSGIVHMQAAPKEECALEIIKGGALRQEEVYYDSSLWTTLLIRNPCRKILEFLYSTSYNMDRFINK

Structure (SMILES)	IC50
CC(C)(C(=O)N[C@H]1C[C@H]2CC[C@@H](C1)N2c1ccc(S(C)(=O)=O)cn1)S(=O)(=O)c1ccc(Cl)cc1Cl [Example 308, 2-[(2,4-dichlorophenyl)sulfonyl]-2-methyl-N-{8-[5-(methylsulfonyl)pyridin-2-yl]-8-azabicyclo[3.2.1]oct-3-endo-yl}propanamide]	< 2000 nM
CC(C)(Oc1ccc(F)c(Cl)c1)C(=O)N[C@H]1C[C@H]2CC[C@@H](C1)N2c1ccc(S(C)(=O)=O)cc1 [Example 228, 2-[(3-chloro-4-fluorophenyl)oxy]-2-methyl-N-{8-[4-(methylsulfonyl)phenyl]-8-azabicyclo[3.2.1]oct-3-endo-yl}propanamide]	< 2000 nM
CC(C)NC(=O)c1ccc(N2[C@@H]3CC[C@H]2C[C@@H](NC(=O)C2(c4ccc(Cl)cc4)CC2)C3)nc1 [Example 12, 6-[3-endo-({[1-(4-chlorophenyl)cyclopropyl]carbonyl}amino)-8-azabicyclo[3.2.1]oct-8-yl]-N-(1-methylethyl)pyridine-3-carboxamide]	< 200 nM
CC(C)(Oc1c(F)cc(F)cc1F)C(=O)N[C@H]1C[C@H]2CC[C@@H](C1)N2c1ccc(S(C)(=O)=O)cc1 [Example 260, 2-methyl-N-{8-[4-(methylsulfonyl)phenyl]-8-azabicyclo[3.2.1]oct-3-endo-yl}-2-[(2,4,6-trifluorophenyl)oxy]propanamide]	< 200 nM
CC(C)(Oc1cc(C(C)(C)O)c(Cl)cc1Cl)C(=O)N[C@H]1C[C@H]2CC[C@@H](C1)N2c1ccc(C(N)=O)cn1 [Example 473, 6-[3-endo-({2-[2,4-dichloro-5-(2-hydroxypropan-2-yl)phenoxy]-2-methylpropanoyl}amino)-8-azabicyclo[3.2.1]oct-8-yl]pyridine-3-carboxamide]	< 200 nM
CC(C)(Oc1ccc(Cl)cc1CO)C(=O)N[C@H]1C[C@H]2CC[C@@H](C1)N2c1ccc(C(=O)NCC(F)(F)F)cn1 [Example 376, 6-[3-endo-({2-[4-chloro-2-(hydroxymethyl)phenoxy]-2-methylpropanoyl}amino)-8-azabicyclo[3.2.1]oct-8-yl]-N-(2,2,2-trifluoroethyl)pyridine-3-carboxamide]	< 200 nM
CS(=O)(=O)c1cccc(C2(C(=O)N[C@H]3C[C@H]4CC[C@@H](C3)N4c3ccc(S(N)(=O)=O)cn3)CC2)c1 [Example 313, N-{8-[5-(aminosulfonyl)pyridin-2-yl]-8-azabicyclo[3.2.1]oct-3-endo-yl}-1-[3-(methylsulfonyl)phenyl]cyclo-propanecarboxamide]	< 2000 nM
CC(C)(Oc1ccc(Cl)cc1C(F)(F)F)C(=O)N[C@H]1C[C@H]2CC[C@@H](C1)N2c1ccc(S(N)(=O)=O)cn1 [Example 211, N-{8-[5-(aminosulfonyl)pyridin-2-yl]-8-azabicyclo[3.2.1]oct-3-endo-yl}-2-{[4-chloro-2-(trifluoromethyl)phenyl]oxy}-2-methylpropanamide]	< 200 nM
O=C(NC1CC1)c1ccc(N2[C@@H]3CC[C@H]2C[C@@H](NC(=O)C2(c4cccc(F)c4)CC2)C3)nc1 [Example 39, N-cyclopropyl-6-[3-endo-({[1-(3-fluorophenyl)cyclopropyl]carbonyl}amino)-8-azabicyclo[3.2.1]oct-8-yl]pyridine-3-carboxamide]	< 200 nM
CC(C)(Oc1ccc(F)c(Cl)c1)C(=O)N[C@H]1C[C@H]2CC[C@@H](C1)N2c1ccc(C(=O)NCC(F)(F)F)cn1 [Example 93, 6-[3-endo-({2-[(3-chloro-4-fluorophenyl)oxy]-2-methylpropanoyl}amino)-8-azabicyclo[3.2.1]oct-8-yl]-N-(2,2,2-trifluoroethyl)pyridine-3-carboxamide]	< 200 nM
CC(C)(Oc1ccc(Cl)cc1Cl)C(=O)N[C@H]1C[C@H]2CC[C@@H](C1)N2Cc1ccc(C(N)=O)cc1 [Example 295, 4-{[3-endo-({2-[(2,4-dichlorophenyl)oxy]-2-methylpropanoyl}amino)-8-azabicyclo[3.2.1]oct-8-yl]methyl}benzamide]	< 2000 nM
CC(C)(Oc1ccc(Cl)cc1OCCO)C(=O)N[C@H]1C[C@H]2CC[C@@H](C1)N2c1ccc(C(=O)NCC(F)(F)F)cn1 [Example 389, 6-[3-endo-({2-[4-chloro-2-(2-hydroxyethoxy)phenoxy]-2-methylpropanoyl}amino)-8-azabicyclo[3.2.1]oct-8-yl]-N-(2,2,2-trifluoroethyl)pyridine-3-carboxamide]	< 200 nM
CC(C)(Oc1ccc(Cl)cc1C(F)F)C(=O)N[C@H]1C[C@H]2CC[C@@H](C1)N2c1ccc(S(C)(=O)=O)cn1 [Example 365, 2-[4-chloro-2-(difluoromethyl)phenoxy]-2-methyl-N-{8-[5-(methylsulfonyl)pyridin-2-yl]-8-azabicyclo[3.2.1]oct-3-endo-yl}propanamide]	< 200 nM
CC(C)(Oc1cc(Cl)c(F)cc1Cl)C(=O)N[C@H]1C[C@H]2CC[C@@H](C1)N2c1ccc(S(C)(=O)=O)cc1 [Example 174, 2-[(2,5-dichloro-4-fluorophenyl)oxy]-2-methyl-N-{8-[4-(methylsulfonyl)phenyl]-8-azabicyclo[3.2.1]oct-3-endo-yl}propanamide]	< 2000 nM
CC(C)c1cc(Cl)ccc1OC(C)(C)C(=O)N[C@H]1C[C@H]2CC[C@@H](C1)N2c1ccc(C(N)=O)cn1 [Example 331, 6-{3-endo-[(2-{[4-chloro-2-(1-methylethyl)phenyl]oxy}-2-methylpropanoyl)amino]-8-azabicyclo[3.2.1]oct-8-yl}pyridine-3-carboxamide]	< 200 nM
CC(C)(Oc1c(Cl)cc(F)cc1Cl)C(=O)N[C@H]1C[C@H]2CC[C@@H](C1)N2c1ccc(S(C)(=O)=O)cn1 [Example 178, 2-[(2,6-dichloro-4-fluorophenyl)oxy]-2-methyl-N-{8-[5-(methylsulfonyl)pyridin-2-yl]-8-azabicyclo[3.2.1]oct-3-endo-yl}propanamide]	< 200 nM
CC(C)(Oc1ccc(Cl)cc1Cl)C(=O)N[C@H]1C[C@H]2CC[C@@H](C1)N2c1ccc(C(=O)NCC(F)(F)F)cc1 [Example 110, 4-[3-endo-({2-[(2,4-dichlorophenyl)oxy]-2-methylpropanoyl}amino)-8-azabicyclo[3.2.1]oct-8-yl]-N-(2,2,2-trifluoroethyl)benzamide]	< 200 nM
CC(C)NC(=O)c1ccc(N2[C@@H]3CC[C@H]2C[C@@H](NC(=O)C(C)(C)Oc2ccc(Cl)cc2S(C)(=O)=O)C3)nc1 [Example 368, 6-[3-endo-({2-[4-chloro-2-(methylsulfonyl)phenoxy]-2-methylpropanoyl}amino)-8-azabicyclo[3.2.1]oct-8-yl]-N-(propan-2-yl)pyridine-3-carboxamide]	< 200 nM
CC(=O)c1ccc(N2[C@@H]3CC[C@H]2C[C@@H](NC(=O)C(C)(C)Oc2ccc(Cl)cc2Cl)C3)nc1 [Example 87, N-[8-(5-acetylpyridin-2-yl)-8-azabicyclo[3.2.1]oct-3-endo-yl]-2-[(2,4-dichlorophenyl)oxy]-2-methylpropanamide]	< 200 nM
CC(C)(Oc1ncc(C(F)(F)F)cc1Cl)C(=O)N[C@H]1C[C@H]2CC[C@@H](C1)N2c1ccc(S(C)(=O)=O)cc1 [Example 249, 2-{[3-chloro-5-(trifluoromethyl)pyridin-2-yl]oxy}-2-methyl-N-{8-[4-(methylsulfonyl)phenyl]-8-azabicyclo[3.2.1]oct-3-endo-yl}propanamide]	< 2000 nM
CC(C)(Oc1ccc(Cl)cc1Cl)C(=O)N[C@H]1C[C@H]2CC[C@@H](C1)N2c1ccc(C(=O)NCC(F)(F)F)cc1F [Example 129, 4-[3-endo-({2-[(2,4-dichlorophenyl)oxy]-2-methylpropanoyl}amino)-8-azabicyclo[3.2.1]oct-8-yl]-3-fluoro-N-(2,2,2-trifluoroethyl)benzamide]	< 200 nM
CC(Oc1ccc(Cl)cc1)C(=O)N[C@H]1C[C@H]2CC[C@@H](C1)N2c1ccc(C(=O)NC2CC2)cn1 (stereo partly drawn) [Example 49, 6-[3-endo-({2-[(4-chlorophenyl)oxy]propanoyl}amino)-8-azabicyclo[3.2.1]oct-8-yl]-N-cyclopropylpyridine-3-carboxamide]	< 2000 nM
CC(C)(C(=O)N[C@H]1C[C@H]2CC[C@@H](C1)N2c1ccc(C(=O)NC2CC2)cn1)c1ccccc1Cl [Example 34, 6-(3-endo-{[2-(2-chlorophenyl)-2-methylpropanoyl]amino}-8-azabicyclo[3.2.1]oct-8-yl)-N-cyclopropylpyridine-3-carboxamide]	< 200 nM
CC(C)(Oc1cc(Cl)c(F)cc1Cl)C(=O)N[C@H]1C[C@H]2CC[C@@H](C1)N2c1ccc(S(C)(=O)=O)cn1 [Example 154, 2-[(2,5-dichloro-4-fluorophenyl)oxy]-2-methyl-N-{8-[5-(methylsulfonyl)pyridin-2-yl]-8-azabicyclo[3.2.1]oct-3-endo-yl}propanamide]	< 200 nM

Reference: patent publication US8163771B2, “11 β-HSD1 modulators” (Exelixis, Inc., priority 2008, dated 2012)
